Experimental data taken from patent publication US9469650B2, “Melampomagnolide B derivatives” (BOARD OF TRUSTEES OF THE UNIVERSITY OF ARKANSAS, priority 2013, dated 2016).
Like-named read-outs stand apart in the source and are kept apart here.

Experiments:
M14 = test: panel of 60 human tumor cell lines, growth inhibition (Melanoma); settings: Homo sapiens; for GI50: M14; for CC50: M14, read-out: LC50; for IC (TGI): M14, read-out: TGI
MDA-MB-435 = test: as above; settings: Homo sapiens; for GI50: MDA-MB-435; for CC50: MDA-MB-435, read-out: LC50; for IC (TGI): MDA-MB-435, read-out: TGI
SK-MEL-2 = test: as above; settings: Homo sapiens; for GI50: SK-MEL-2; for CC50: SK-MEL-2, read-out: LC50; for IC (TGI): SK-MEL-2, read-out: TGI
SK-MEL-5 = test: as above; settings: Homo sapiens; for GI50: SK-MEL-5; for CC50: SK-MEL-5, read-out: LC50; for IC (TGI): SK-MEL-5, read-out: TGI
SF-268 = test: panel of 60 human tumor cell lines, growth inhibition (CNS Cancer); settings: Homo sapiens; for GI50: SF-268; for CC50: SF-268, read-out: LC50; for IC (TGI): SF-268, read-out: TGI
HCT-15 = test: panel of 60 human tumor cell lines, growth inhibition (Colon Cancer); settings: Homo sapiens; for GI50: HCT-15; for CC50: HCT-15, read-out: LC50; for IC (TGI): HCT-15, read-out: TGI
ACHN = test: panel of 60 human tumor cell lines, growth inhibition (Renal Cancer); settings: Homo sapiens; for CC50: read-out: LC50; for IC (TGI): read-out: TGI
SN12C = test: as above; settings: Homo sapiens; for CC50: read-out: LC50; for IC (TGI): read-out: TGI
TK-10 = test: as above; settings: Homo sapiens; for CC50: TK-10, read-out: LC50; for IC (TGI): TK-10, read-out: TGI
MCF7 = test: panel of 60 human tumor cell lines, growth inhibition (Breast Cancer); settings: Homo sapiens; for CC50: MCF7, read-out: LC50; for IC (TGI): MCF7, read-out: TGI
MDA-MB-231/ATCC = test: as above; settings: Homo sapiens; for GI50: MDA-MB-231; for CC50: MDA-MB-231, read-out: LC50; for IC (TGI): MDA-MB-231, read-out: TGI
HS 578T = test: as above; settings: Homo sapiens, Hs-578T; for CC50: read-out: LC50; for IC (TGI): read-out: TGI
BT-549 = test: as above; settings: Homo sapiens; for GI50: BT-549; for CC50: BT-549, read-out: LC50; for IC (TGI): BT-549, read-out: TGI
IGROV1 = test: panel of 60 human tumor cell lines, growth inhibition (Ovarian Cancer); settings: Homo sapiens; for GI50: IGROV-1; for CC50: IGROV-1, read-out: LC50; for IC (TGI): IGROV-1, read-out: TGI
OVCAR-8 = test: as above; settings: Homo sapiens; for GI50: OVCAR-8; for CC50: OVCAR-8, read-out: LC50; for IC (TGI): OVCAR-8, read-out: TGI
A549/ATCC = test: panel of 60 human tumor cell lines, growth inhibition (Non-Small Cell Lung Cancer); settings: Homo sapiens; for GI50: A549; for CC50: A549, read-out: LC50; for IC (TGI): A549, read-out: TGI
NCI-H226 = test: as above; settings: Homo sapiens; for GI50: NCI-H226; for CC50: NCI-H226, read-out: LC50; for IC (TGI): NCI-H226, read-out: TGI
NCI-H460 = test: as above; settings: Homo sapiens; for GI50: NCI-H460; for CC50: NCI-H460, read-out: LC50; for IC (TGI): NCI-H460, read-out: TGI

## C=C1C(=O)O[C@H]2[C@H]1CC/C(COC(=O)NCCN1CCOCC1)=C\CC[C@@]1(C)O[C@@H]21 [JVM 57, ((1aR,7aS,10aS,10bS,E)-1a-methyl-8-methylene-9-oxo-1a,2,3,6,7,7a,8,9,10a,10b-decahydrooxireno[2′,3′:9,10]-cyclodeca[1,2-b]furan-5-yl)-methyl(2-morpholinoethyl)carbamate]
HL-60(TB); Log10 Concentration −4.0
  Percent Growth: −55%
HL-60(TB); Log10 Concentration −5.0
  Percent Growth: 14%
HL-60(TB); Log10 Concentration −6.0
  Percent Growth: 95%
HL-60(TB); Log10 Concentration −7.0
  Percent Growth: 101%
HL-60(TB); Log10 Concentration −8.0
  Percent Growth: 100%
M14
  GI50: 7.97 µM
  CC50: 58.5 µM
  IC (TGI): 23.1 µM
MDA-MB-435
  GI50: 5.89 µM
  CC50: 66.9 µM
  IC (TGI): 22 µM
SK-MEL-2
  GI50: 13.2 µM
  CC50: 65.5 µM
  IC (TGI): 29.4 µM
SK-MEL-5
  GI50: 12.7 µM
  CC50: 50.9 µM
  IC (TGI): 25.4 µM
SF-268
  GI50: 14.5 µM
  CC50: 64.4 µM
  IC (TGI): 30.5 µM
HCT-15
  GI50: 10.5 µM
  CC50: > 100 µM
  IC (TGI): 34.4 µM
ACHN
  GI50: 3.74 µM
  CC50: 44.3 µM
  IC (TGI): 14.3 µM
SN12C
  GI50: 18.8 µM
  CC50: > 100 µM
  IC (TGI): 55.2 µM
TK-10; TK-10, TK-10
  GI50: 3.93 µM
TK-10; TK-10, TK-10, 5-dose assay
  GI50: 3.93 µM
TK-10
  CC50: 38.9 µM
  IC (TGI): 13.9 µM
MCF7; MCF7, MCF7
  GI50: 3.54 µM
MCF7; MCF7, MCF7, 5-dose assay
  GI50: 3.54 µM
MCF7
  CC50: 53.1 µM
  IC (TGI): 14.4 µM
MDA-MB-231/ATCC
  GI50: 13.7 µM
  CC50: 64.3 µM
  IC (TGI): 29.7 µM
HS 578T
  GI50: 20.1 µM
  CC50: > 100 µM
  IC (TGI): > 100 µM
BT-549
  GI50: 4.99 µM
  CC50: 49.3 µM
  IC (TGI): 17.6 µM
IGROV1
  GI50: 3.49 µM
  CC50: 58.6 µM
  IC (TGI): 14.6 µM
OVCAR-8
  GI50: 12.7 µM
  CC50: > 100 µM
  IC (TGI): 36.8 µM
A549/ATCC
  GI50: 28.5 µM
  CC50: > 100 µM
  IC (TGI): > 100 µM
NCI-H226
  GI50: 42.7 µM
  CC50: > 100 µM
  IC (TGI): > 100 µM
NCI-H460
  GI50: 27.1 µM
  CC50: > 100 µM
  IC (TGI): 87.3 µM

## C=C1C(=O)O[C@H]2[C@H]1CC/C(COC(=O)NCCN1CCCC1)=C\CC[C@@]1(C)O[C@@H]21 [JVM 59, ((1aR,7aS,10aS,10bS,E)-1a-methyl-8-methylene-9-oxo-1a,2,3,6,7,7a,8,9,10a,10b-decahydrooxireno[2′,3′:9,10]cyclodeca[1,2-b]furan-5-yl)methyl-(2-(pyrrolidin-1-yl)ethyl)carbamate]
HL-60(TB); Log10 Concentration −4.0
  Percent Growth: −63%
HL-60(TB); Log10 Concentration −5.0
  Percent Growth: 22%
HL-60(TB); Log10 Concentration −6.0
  Percent Growth: 95%
HL-60(TB); Log10 Concentration −7.0
  Percent Growth: 96%
HL-60(TB); Log10 Concentration −8.0
  Percent Growth: 88%
M14
  GI50: 9.65 µM
  CC50: 58.1 µM
  IC (TGI): 24 µM
MDA-MB-435
  GI50: 6.56 µM
  CC50: 53.4 µM
  IC (TGI): 21.1 µM
SK-MEL-2
  GI50: 14 µM
  CC50: 62.4 µM
  IC (TGI): 29.5 µM
SK-MEL-5
  GI50: 15.5 µM
  CC50: 55.1 µM
  IC (TGI): 29.2 µM
SF-268
  GI50: 14.7 µM
  CC50: 60.8 µM
  IC (TGI): 30 µM
HCT-15
  GI50: 13.5 µM
  CC50: 91.2 µM
  IC (TGI): 35.1 µM
ACHN
  GI50: 3.8 µM
  CC50: 39.4 µM
  IC (TGI): 14.7 µM
SN12C
  GI50: 17.7 µM
  CC50: 85.5 µM
  IC (TGI): 39 µM
TK-10; TK-10, TK-10, five dose
  GI50: 3.11 µM
TK-10; TK-10, TK-10, 5-dose assay
  GI50: 3.11 µM
TK-10
  CC50: 40.2 µM
  IC (TGI): 14.1 µM
MCF7; MCF7, MCF7, five dose
  GI50: 3.91 µM
MCF7; MCF7, MCF7, 5-dose assay
  GI50: 3.91 µM
MCF7
  CC50: 63.7 µM
  IC (TGI): 17.1 µM
MDA-MB-231/ATCC
  GI50: 15.2 µM
  CC50: 61.6 µM
  IC (TGI): 30.6 µM
HS 578T
  GI50: 19.7 µM
  CC50: > 100 µM
  IC (TGI): 69 µM
BT-549
  GI50: 4.75 µM
  CC50: 45 µM
  IC (TGI): 18.6 µM
IGROV1
  GI50: 4.09 µM
  CC50: 68.5 µM
  IC (TGI): 16.2 µM
OVCAR-8
  GI50: 13.4 µM
  CC50: 72.2 µM
  IC (TGI): 31.1 µM
A549/ATCC
  GI50: 27.6 µM
  CC50: > 100 µM
  IC (TGI): 96.5 µM
NCI-H226
  GI50: 35.3 µM
  CC50: > 100 µM
  IC (TGI): > 100 µM
NCI-H460
  GI50: 22.3 µM
  CC50: > 100 µM
  IC (TGI): 51.4 µM

## C=C1C(=O)O[C@H]2[C@H]1CC/C(COC(=S)n1ccnc1)=C\CC[C@@]1(C)O[C@@H]21 [JVM 66]
HL-60(TB); Log10 Concentration −4.0
  Percent Growth: −62%
HL-60(TB); Log10 Concentration −5.0
  Percent Growth: 16%
HL-60(TB); Log10 Concentration −6.0
  Percent Growth: 102%
HL-60(TB); Log10 Concentration −7.0
  Percent Growth: 101%
HL-60(TB); Log10 Concentration −8.0
  Percent Growth: 95%
M14
  GI50: 12.6 µM
  CC50: 89.2 µM
  IC (TGI): 33.6 µM
MDA-MB-435
  GI50: 16.7 µM
  CC50: > 100 µM
  IC (TGI): 43.8 µM
SK-MEL-2
  GI50: 16.4 µM
  CC50: 93 µM
  IC (TGI): 39.6 µM
SK-MEL-5
  GI50: 13.3 µM
  CC50: 55.6 µM
  IC (TGI): 27.7 µM
SF-268
  GI50: 21.9 µM
  CC50: > 100 µM
  IC (TGI): 67.7 µM
HCT-15
  GI50: 6.88 µM
  CC50: 89.2 µM
  IC (TGI): 27.1 µM
ACHN
  GI50: 6.73 µM
  CC50: 50.7 µM
  IC (TGI): 20.4 µM
SN12C
  GI50: 13.7 µM
  CC50: 85.3 µM
  IC (TGI): 18.8 µM
TK-10; TK-10, TK-10, NCI five dose
  GI50: 10.5 µM
TK-10
  CC50: 58.2 µM
  IC (TGI): 24.8 µM
MCF7; MCF7, MCF7, NCI five dose
  GI50: 4.19 µM
MCF7
  CC50: 76.7 µM
  IC (TGI): 19.8 µM
MDA-MB-231/ATCC
  GI50: 15.8 µM
  CC50: 75.7 µM
  IC (TGI): 34.6 µM
HS 578T
  GI50: 26.5 µM
  CC50: > 100 µM
  IC (TGI): > 100 µM
BT-549
  GI50: 18.3 µM
  CC50: > 100 µM
  IC (TGI): 68 µM
IGROV1
  GI50: 9.04 µM
  CC50: > 100 µM
OVCAR-8
  GI50: 11.4 µM
  CC50: > 100 µM
  IC (TGI): > 100 µM
A549/ATCC
  CC50: > 100 µM
  IC (TGI): 106 µM
NCI-H226
  GI50: 99.6 µM
  CC50: > 100 µM
  IC (TGI): > 100 µM
NCI-H460
  GI50: 15.7 µM
  CC50: > 100 µM
  IC (TGI): 71.4 µM
